The test system of one series is NB-4. The series can be described thus: Antiproliferative activity against human NB4 cells after 72 hrs. The format is functional, cell-based. The following applies: NB-4, 72 h.
The target in another series is Histone deacetylase 2 (Homo sapiens, UniProt Q92769). The series can be described thus: Inhibition of HDAC2 in human HeLa cells. The format is cell-based.
The subject of a further series is NCI-H460. The series can be described thus: Antiproliferative activity against human H460 cells after 72 hrs. The series is classed as functional, cell-based. The following applies: NCI-H460, 72 h.
Another series has as its system HCT-116. Description: Antiproliferative activity against human HCT116 cells after 72 hrs. The format is functional, cell-based. The conditions noted are these: HCT-116, 72 h.
The test system of series [1] is IGROV-1. The series can be described thus: Antiproliferative activity against human IGROV1 cells after 72 hrs. The conditions noted are these: IGROV-1, 72 h. The series is classed as functional, cell-based.
Series [2] relates to IGROV-1. Description: Antiproliferative activity against cisplatin-resistant human IGROV1 cells after 72 hrs. The format is functional, cell-based. The following applies: IGROV-1, 72 h.
The subject of series [3] is IGROV-1. Description: Induction of apoptosis in human IGROV1 cells at IC80 after 72 hrs by TUNEL assay. The format is functional.
Series [4] deals with IGROV-1. Description: Cell cycle arrest in human IGROV1 cells assessed as accumulation at sub-G1 phase at IC80 after 24 hrs using propidium-iodide staining by flow-cytometry. The format is functional, cell-based.
Series [5] has as its system IGROV-1. Description: Cell cycle arrest in cisplatin-resistant human IGROV1 cells assessed as partial accumulation at S phase at IC80 using propidium-iodide staining by flow-cytometry. The series is classed as functional, cell-based.
Series [6] concerns IGROV-1. The series can be described thus: Cell cycle arrest in cisplatin-resistant human IGROV1 cells assessed as partial accumulation at G2/M phase at IC80 using propidium-iodide staining by flow-cytometry. The series is classed as functional, cell-based.
In series [7] the test system is IGROV-1. The series can be described thus: Antiproliferative activity against human IGROV1 cells after 72 hrs by cell counting. The conditions noted are these: IGROV-1, 72 h.
The subject of series [8] is IGROV-1. The series can be described thus: Antitumor activity against human IGROV1 cells athymic nude Swiss mouse assessed as tumor volume inhibition at 20 mg/kg, po QD administered 5 days a week for 4 weeks. The format is functional.
The next series deals with Mus musculus. Description: Toxicity in athymic nude Swiss mouse bearing human IGROV1 cells assessed as body weight loss at 20 mg/kg, po QD administered 5 days a week for 4 weeks. The format is organism-based, IGROV-1. Also noted: dose 20 mg/kg, route oral. The conditions noted are these: in vivo.

Calls of active or inactive are those of the source. The rule behind the calls is not given here. Bounds are passed on as bounds.

As usually defined, the IC50 is the concentration that inhibits the measured activity by half. Low readings indicate inhibition by little substance, high ones a need for much substance. Broadly, the IC80 is the concentration at which the effect reaches the 80% level. Higher therefore signals weaker potency. Broadly, the inhibition in vivo is the percentage by which the read-out fell short of the control.

Sequence of Histone deacetylase 2 (Q92769 whole entry): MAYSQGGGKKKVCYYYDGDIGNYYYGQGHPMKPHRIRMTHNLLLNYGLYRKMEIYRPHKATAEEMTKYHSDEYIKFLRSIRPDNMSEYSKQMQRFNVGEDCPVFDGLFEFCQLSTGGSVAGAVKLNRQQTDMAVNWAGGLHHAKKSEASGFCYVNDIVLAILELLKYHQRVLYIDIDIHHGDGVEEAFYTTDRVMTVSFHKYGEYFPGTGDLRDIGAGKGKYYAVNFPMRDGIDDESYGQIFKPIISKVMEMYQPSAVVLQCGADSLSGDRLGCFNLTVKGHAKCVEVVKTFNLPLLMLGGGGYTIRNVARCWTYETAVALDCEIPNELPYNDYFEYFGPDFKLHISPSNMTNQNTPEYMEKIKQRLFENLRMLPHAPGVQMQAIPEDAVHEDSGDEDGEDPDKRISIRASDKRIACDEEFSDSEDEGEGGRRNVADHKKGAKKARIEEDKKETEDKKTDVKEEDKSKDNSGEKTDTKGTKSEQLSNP

As for `O=C(/C=C/c1ccc(-c2ccncc2)cc1)NO`, the IC50 in the series on NB-4 was 3290 nM; against Histone deacetylase 2, greater than 5000 nM.

Regarding `O=C(CCCCc1ccc(-c2ccccc2)cc1)NO`, the IC50 worked out at 860 nM with NB-4; 720 nM against Histone deacetylase 2; 4700 nM in the series with NCI-H460; 2700 nM in the series with HCT-116; 8000 nM with IGROV-1 [1]; 9100 nM in the series with IGROV-1 [2]. The Activity with IGROV-1 [3] is on record as 65%. Moreover, the result with IGROV-1 [4], with IGROV-1 [5] and with IGROV-1 [6] was Active. In the series on IGROV-1 [7], this compound registered an IC80 of 12000 nM.

Consider `O=C(/C=C/C1CCC(c2ccc(O)cc2)CC1)NO` (stereo not drawn), for which the IC50 in the series on NB-4 worked out at 900 nM; at Histone deacetylase 2, 310 nM; in the series on NCI-H460, 2200 nM; in the series on HCT-116 it was 370 nM; with IGROV-1 [1], 2500 nM; with IGROV-1 [2], 2600 nM.

Consider `COc1ccc(-c2ccc(/C=C/C=C/C(=O)NO)cc2)cc1`, for which the IC50 on Histone deacetylase 2 was greater than 5000 nM; with NCI-H460, greater than 20000 nM; in the series on IGROV-1 [1], 570 nM; with IGROV-1 [2], 2010 nM. Moreover, the Activity in the series on IGROV-1 [3] was 90%. In addition, the 80% effect level in the series with IGROV-1 [7] (IC80) was put at 10000 nM.

As to `O=Cc1ccc(-c2ccc(/C=C/C(=O)NO)cc2)cc1`, the IC50 worked out at 12100 nM with IGROV-1 [1] and 20300 nM in the series on IGROV-1 [2].

As for `O=C(CCc1ccc(-c2ccc(O)cc2)cc1)NO`, the IC50 in the series with NB-4 was 3900 nM; against Histone deacetylase 2 it was 1700 nM; in the series on NCI-H460 it was 15200 nM; with HCT-116, 260 nM; in the series with IGROV-1 [1], 800 nM; with IGROV-1 [2] it was 950 nM. The Activity in the series on IGROV-1 [3] is recorded as 45%. Further, the result with IGROV-1 [4], with IGROV-1 [5] and in the series on IGROV-1 [6] was Active. In the series with IGROV-1 [7], this compound had a concentration for an effect of 80% (IC80) of 10000 nM.

In the case of `O=C(/C=C/Oc1ccc(-c2ccccc2)cc1)NO`, the IC50 with HCT-116 was determined as 3900 nM; in the series with IGROV-1 [1], 5400 nM; with IGROV-1 [2], 5900 nM.

Consider `O=C(/C=C/c1cccc(-c2ccc(O)cc2)c1)NO`, for which the IC50 in the series on NB-4 was 2850 nM; against Histone deacetylase 2, 320 nM; with NCI-H460, 5600 nM; in the series with HCT-116 it was 1640 nM; with IGROV-1 [1], greater than 10000 nM; in the series on IGROV-1 [2] it was greater than 10000 nM.

For `O=C(CCC1CCC(c2ccc(O)cc2)CC1)NO` (stereo not drawn), the IC50 turned out to be 6900 nM in the series with NB-4; 9500 nM in the series on NCI-H460; 4270 nM in the series on HCT-116; 31900 nM in the series on IGROV-1 [1]; 23900 nM with IGROV-1 [2].

As to `O=C(/C=C/C=C/c1ccc(-c2ccccc2)cc1)NO`, the IC50 was 660 nM in the series on NB-4; greater than 5000 nM against Histone deacetylase 2; 1900 nM with NCI-H460; 980 nM in the series with HCT-116; 1400 nM in the series with IGROV-1 [1]; 2400 nM in the series with IGROV-1 [2]. This compound yielded an Activity with IGROV-1 [3] of 89%. Also, the outcome in the series on IGROV-1 [4], in the series with IGROV-1 [5] and in the series with IGROV-1 [6] was Active. Moreover, in the series with IGROV-1 [7], the 80% effect level (IC80) was put at 3000 nM.

With `CN(C)c1ccc(-c2ccc(/C=C/C(=O)NO)cc2)cc1`, the IC50 in the series on NB-4 was 860 nM; against Histone deacetylase 2, greater than 5000 nM; with HCT-116, 700 nM; with IGROV-1 [1] it was 1100 nM; in the series on IGROV-1 [2] it was 3500 nM. In addition, the Activity in the series with IGROV-1 [3] amounted to 89%. Moreover, the result in the series on IGROV-1 [4], in the series with IGROV-1 [5] and with IGROV-1 [6] was Active. The compound also yielded an IC80 in the series with IGROV-1 [7] of 3000 nM.

Consider `N#Cc1ccc(-c2ccc(/C=C/C(=O)NO)cc2)cc1`, for which the IC50 came to 330 nM on Histone deacetylase 2, 5700 nM in the series on NCI-H460, 2700 nM in the series on IGROV-1 [1] and 3200 nM in the series with IGROV-1 [2]. Moreover, the Activity was found to be 90% with IGROV-1 [3] and 0% in the series on Mus musculus. The outcome with IGROV-1 [4], with IGROV-1 [5] and with IGROV-1 [6] was Active. Moreover, the inhibition in vivo at 20 mg/kg in the series on IGROV-1 [8] was found to be 37%. In the series with IGROV-1 [7], this compound showed an IC80 of 10000 nM.

On to `O=C(/C=C/c1ccc(-c2ccccc2)cc1)NO`, for which the IC50 in the series on NB-4 amounted to 900 nM; against Histone deacetylase 2, 820 nM; with NCI-H460, 5400 nM; in the series on HCT-116 it was 1580 nM; with IGROV-1 [1], 3500 nM; in the series on IGROV-1 [2], 4000 nM.

Take `N#Cc1ccc(-c2ccc(/C=C/C=C/C(=O)NO)cc2)cc1`: the IC50 against Histone deacetylase 2 was determined as 1200 nM; in the series on NCI-H460, 3300 nM; in the series with IGROV-1 [1], 1050 nM; in the series with IGROV-1 [2] it was 3100 nM.

Take `O=C(/C=C/c1ccc(-c2ccc3[nH]ccc3c2)cc1)NO`: the IC50 in the series with NB-4 was found to be 6500 nM; on Histone deacetylase 2, 1200 nM; with NCI-H460 it was 14000 nM; in the series with IGROV-1 [1] it was 22100 nM; in the series with IGROV-1 [2], 29300 nM.

On to `O=C(/C=C/c1ccc(-c2ccc(O)c(Cl)c2)cc1)NO`, for which the IC50 in the series on NB-4 came to 580 nM; against Histone deacetylase 2 it was 460 nM; in the series on NCI-H460, 3100 nM; in the series with HCT-116, 1460 nM; in the series with IGROV-1 [1] it was 4100 nM; in the series with IGROV-1 [2], 3900 nM. Also, the result with IGROV-1 [4], in the series with IGROV-1 [5] and with IGROV-1 [6] was Active.

In the case of `O=C(/C=C/c1ccc(-c2ccc(Cl)cc2)cc1)NO`, the IC50 is 760 nM in the series with NB-4; 1860 nM against Histone deacetylase 2; 510 nM in the series on HCT-116; 610 nM in the series on IGROV-1 [1]; 1360 nM in the series with IGROV-1 [2]. In the series on IGROV-1 [3], the Activity was found to be 77%. The result with IGROV-1 [4], with IGROV-1 [5] and with IGROV-1 [6] was Active. The compound also showed an IC80 in the series on IGROV-1 [7] of 2000 nM.

On to `O=C(/C=C/c1ccc(-c2cccs2)cc1)NO`, for which the IC50 against Histone deacetylase 2 stood at 450 nM; in the series on NCI-H460, 2800 nM; in the series with IGROV-1 [1] it was 2800 nM; in the series on IGROV-1 [2], 3200 nM. Further, in the series on IGROV-1 [3], the Activity worked out at 90%. Moreover, the outcome in the series with IGROV-1 [4], in the series on IGROV-1 [5] and with IGROV-1 [6] was Active. In the series with IGROV-1 [7], this compound returned an IC80 of 7000 nM.

On to `O=C(/C=C/c1ccc(-c2ccc(CO)cc2)cc1)NO`, for which the IC50 with NB-4 was 1810 nM; against Histone deacetylase 2 it was 220 nM; in the series on NCI-H460, 3800 nM; in the series on HCT-116, 800 nM; with IGROV-1 [1], 8000 nM; in the series with IGROV-1 [2], 5500 nM. For the same compound, the Activity with IGROV-1 [3] is reported as 90%. Moreover, the outcome with IGROV-1 [4], with IGROV-1 [5] and in the series with IGROV-1 [6] was Active. In the series with IGROV-1 [7], the 80% effect level (IC80) was put at 15000 nM.

Source of the values: ChEMBL document CHEMBL1158371, “Design, synthesis, and evaluation of biphenyl-4-yl-acrylohydroxamic acid derivatives as histone deacetylase (HDAC) inhibitors” (Eur J Med Chem, 2009).
